According to paper PMC2711511 (Bioorganic & medicinal chemistry letters, 2008):

Tests used:
ERα [1] = target: T1, ERα (Homo sapiens, UniProt P03372); test: estrogen-responsive reporter gene cotransfection assay in HEC-1 cells, ERα
T1 sequence (P03372 1-595): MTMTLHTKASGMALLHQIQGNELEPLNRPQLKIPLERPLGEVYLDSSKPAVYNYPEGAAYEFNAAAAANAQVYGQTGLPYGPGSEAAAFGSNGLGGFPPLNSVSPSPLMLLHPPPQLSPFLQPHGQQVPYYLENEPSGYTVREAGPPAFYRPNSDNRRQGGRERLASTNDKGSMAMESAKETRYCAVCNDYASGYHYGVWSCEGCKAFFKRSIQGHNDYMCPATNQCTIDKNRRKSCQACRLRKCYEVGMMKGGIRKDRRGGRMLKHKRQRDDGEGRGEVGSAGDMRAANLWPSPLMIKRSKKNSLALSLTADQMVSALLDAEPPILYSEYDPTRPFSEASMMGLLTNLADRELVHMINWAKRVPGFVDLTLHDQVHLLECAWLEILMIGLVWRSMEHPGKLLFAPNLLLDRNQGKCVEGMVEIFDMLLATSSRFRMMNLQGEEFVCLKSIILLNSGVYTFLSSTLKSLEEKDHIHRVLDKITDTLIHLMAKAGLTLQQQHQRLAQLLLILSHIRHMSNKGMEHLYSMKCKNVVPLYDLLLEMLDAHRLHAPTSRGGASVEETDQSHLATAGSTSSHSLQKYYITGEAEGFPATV

ERα [2] = target: T1, ERα; details: cited from earlier work
ERα [3] = target: T1, ERα; details: cited from earlier work; remark: listed apart in the source
ERα [4] = target: T1, ERα; test: competitive radiometric binding assay, ERα

SMILES: Cc1c(-c2ccc(O)cc2)nn(-c2ccc(O)cc2)c1-c1ccc(OCCN2CCCCC2)cc1 [MPP, Methyl-piperidino-pyrazole]
- ERα partial agonist activity (ERα [1]): residual, low ERα partial agonist activity

SMILES: CCCc1c(-c2ccc(O)cc2)nn(-c2ccc(O)cc2)c1-c1ccc(O)cc1 [PPT, propyl-pyrazole-triol]
- affinity on ERα versus ERβ (ERα [2]): ca. 1000 fold
- agonist potency on ERα versus ERβ (ERα [3]): ca. 1000 fold

SMILES: Cc1c(-c2ccc(O)cc2)nn(-c2ccc(O)cc2)c1-c1ccc(CCCN2CCCCC2)cc1 [compound 1]
- ERα partial agonist activity (ERα [1]): lacks
- ERα selectivity relative to that of the triol agonist MPT (ERα [4]): about 2.3 fold

SMILES: Cc1c(-c2ccc(O)cc2)nn(-c2ccc(O)cc2)c1-c1ccc(/C=C/C(=O)N2CCCCC2)cc1 [compound 2]
- binding (in words) (ERα [4]; compared with MPP and 1): markedly lower
